Laboratory results reported in the CheMixHub viscosity set.
± gives the uncertainty stated by the source.

Assay: xn = mol fraction of the nth substance listed

C1CCCCC1 + CCO
Settings	viscosity [mPa·s]
293.15 K, 101.3 kPa, x1 = 0.0565	1.143 ± 0.019
293.15 K, 101.3 kPa, x1 = 0.2674	1.028 ± 0.017
293.15 K, 101.3 kPa, x1 = 0.3539	0.9953 ± 0.017
293.15 K, 101.3 kPa, x1 = 0.4506	0.9698 ± 0.016
293.15 K, 101.3 kPa, x1 = 0.5626	0.9436 ± 0.016
293.15 K, 101.3 kPa, x1 = 0.6898	0.9184 ± 0.015
293.15 K, 101.3 kPa, x1 = 0.8348	0.9099 ± 0.015
298.15 K, 101 kPa, x2 = 0.0396	0.871 ± 0.008
298.15 K, 101 kPa, x2 = 0.0718	0.867 ± 0.008
298.15 K, 101 kPa, x2 = 0.1435	0.851 ± 0.008
298.15 K, 101 kPa, x2 = 0.3225	0.839 ± 0.008
298.15 K, 101 kPa, x2 = 0.4832	0.864 ± 0.008
298.15 K, 101 kPa, x2 = 0.6269	0.901 ± 0.009
298.15 K, 101 kPa, x2 = 0.7067	0.923 ± 0.009
298.15 K, 101 kPa, x2 = 0.8205	0.967 ± 0.009
298.15 K, 101.3 kPa, x1 = 0.0565	1.037 ± 0.018
298.15 K, 101.3 kPa, x1 = 0.1188	0.9995 ± 0.017
298.15 K, 101.3 kPa, x1 = 0.1894	0.9602 ± 0.016
298.15 K, 101.3 kPa, x1 = 0.2674	0.9303 ± 0.016
298.15 K, 101.3 kPa, x1 = 0.3539	0.9067 ± 0.015
298.15 K, 101.3 kPa, x1 = 0.4506	0.8821 ± 0.015
298.15 K, 101.3 kPa, x1 = 0.5626	0.8589 ± 0.015
298.15 K, 101.3 kPa, x1 = 0.6898	0.8388 ± 0.014
298.15 K, 101.3 kPa, x1 = 0.8348	0.8319 ± 0.014
298.15 K, 101.33 kPa, x1 = 0.0999	1.003 ± 0.013
298.15 K, 101.33 kPa, x1 = 0.1993	0.951 ± 0.012
298.15 K, 101.33 kPa, x1 = 0.2995	0.923 ± 0.012
298.15 K, 101.33 kPa, x1 = 0.3987	0.892 ± 0.011
298.15 K, 101.33 kPa, x1 = 0.5003	0.872 ± 0.011
298.15 K, 101.33 kPa, x1 = 0.55	0.861 ± 0.011
298.15 K, 101.33 kPa, x1 = 0.6011	0.851 ± 0.011
298.15 K, 101.33 kPa, x1 = 0.7014	0.831 ± 0.011
298.15 K, 101.33 kPa, x1 = 0.803	0.826 ± 0.011
298.15 K, 101.33 kPa, x1 = 0.9006	0.84 ± 0.011
303.15 K, 101.3 kPa, x1 = 0.0565	0.947 ± 0.016
303.15 K, 101.3 kPa, x1 = 0.1188	0.9133 ± 0.016
303.15 K, 101.3 kPa, x1 = 0.1894	0.8784 ± 0.015
303.15 K, 101.3 kPa, x1 = 0.2674	0.8522 ± 0.015
303.15 K, 101.3 kPa, x1 = 0.3539	0.8288 ± 0.014
303.15 K, 101.3 kPa, x1 = 0.4506	0.8084 ± 0.014
303.15 K, 101.3 kPa, x1 = 0.5626	0.786 ± 0.014
303.15 K, 101.3 kPa, x1 = 0.6898	0.7655 ± 0.013
303.15 K, 101.3 kPa, x1 = 0.8348	0.7647 ± 0.013
303.15 K, 101.33 kPa, x2 = 0.0952	0.7883 ± 0.01
303.15 K, 101.33 kPa, x2 = 0.1976	0.7705 ± 0.0099
303.15 K, 101.33 kPa, x2 = 0.2988	0.7735 ± 0.0099
303.15 K, 101.33 kPa, x2 = 0.3894	0.7762 ± 0.01
303.15 K, 101.33 kPa, x2 = 0.4879	0.7852 ± 0.01
303.15 K, 101.33 kPa, x2 = 0.5929	0.8063 ± 0.01
303.15 K, 101.33 kPa, x2 = 0.7828	0.8609 ± 0.011
303.15 K, 101.33 kPa, x2 = 0.9018	0.921 ± 0.012
308.15 K, 101 kPa, x2 = 0.0396	0.741 ± 0.007
308.15 K, 101 kPa, x2 = 0.0718	0.729 ± 0.007
308.15 K, 101 kPa, x2 = 0.1435	0.716 ± 0.007
308.15 K, 101 kPa, x2 = 0.3225	0.707 ± 0.007
308.15 K, 101 kPa, x2 = 0.4832	0.726 ± 0.007
308.15 K, 101 kPa, x2 = 0.6269	0.752 ± 0.007
308.15 K, 101 kPa, x2 = 0.7067	0.772 ± 0.008
308.15 K, 101 kPa, x2 = 0.8205	0.807 ± 0.008
308.15 K, 101 kPa, x2 = 0.8789	0.835 ± 0.008
308.15 K, 101 kPa, x2 = 0.9548	0.875 ± 0.008
308.15 K, 101.3 kPa, x1 = 0.0565	0.8683 ± 0.015
308.15 K, 101.3 kPa, x1 = 0.1188	0.8383 ± 0.015
308.15 K, 101.3 kPa, x1 = 0.1894	0.8039 ± 0.014
308.15 K, 101.3 kPa, x1 = 0.2674	0.7793 ± 0.014
308.15 K, 101.3 kPa, x1 = 0.3539	0.7578 ± 0.013
308.15 K, 101.3 kPa, x1 = 0.4506	0.7384 ± 0.013
308.15 K, 101.3 kPa, x1 = 0.5626	0.7191 ± 0.013
308.15 K, 101.3 kPa, x1 = 0.6898	0.7052 ± 0.012
308.15 K, 101.3 kPa, x1 = 0.8348	0.7051 ± 0.012
318.15 K, 101 kPa, x2 = 0.0396	0.632 ± 0.006
318.15 K, 101 kPa, x2 = 0.0718	0.627 ± 0.006
318.15 K, 101 kPa, x2 = 0.1435	0.614 ± 0.006
318.15 K, 101 kPa, x2 = 0.3225	0.601 ± 0.006
318.15 K, 101 kPa, x2 = 0.4832	0.616 ± 0.006
318.15 K, 101 kPa, x2 = 0.6269	0.634 ± 0.006
318.15 K, 101 kPa, x2 = 0.7067	0.649 ± 0.007
318.15 K, 101 kPa, x2 = 0.8205	0.68 ± 0.007
318.15 K, 101 kPa, x2 = 0.8789	0.701 ± 0.007
318.15 K, 101 kPa, x2 = 0.9548	0.736 ± 0.007

CCCCCCOC(C)=O + CCCCCO
viscosity [mPa·s], 101.33 kPa
Settings	x1 = 0.1057	x1 = 0.2038	x1 = 0.3074	x1 = 0.4005	x1 = 0.5019	x1 = 0.6009	x1 = 0.7083	x1 = 0.8029	x1 = 0.9041
293.15 K	3.347 ± 0.044	2.798 ± 0.039	2.346 ± 0.034	2.028 ± 0.031	1.755 ± 0.028	1.548 ± 0.026	1.373 ± 0.024	1.253 ± 0.023	1.153 ± 0.022
303.15 K	2.392 ± 0.034	2.002 ± 0.03	1.682 ± 0.027	1.456 ± 0.025	1.262 ± 0.023	1.115 ± 0.021	0.991 ± 0.02	0.906 ± 0.019	0.835 ± 0.018
313.15 K	1.889 ± 0.029	1.594 ± 0.026	1.352 ± 0.024	1.181 ± 0.022	1.035 ± 0.02	0.924 ± 0.019	0.83 ± 0.018	0.766 ± 0.018	0.712 ± 0.017

COC(C)=O + ClC(Cl)Cl
303.15 K, 101.3 kPa
Settings	viscosity [mPa·s]
x1 = 0.1026	0.5228 ± 0.0036
x1 = 0.2027	0.525 ± 0.0037
x1 = 0.3012	0.5197 ± 0.0036
x1 = 0.4009	0.5018 ± 0.0035
x1 = 0.5028	0.4782 ± 0.0034
x1 = 0.6033	0.4508 ± 0.0033
x1 = 0.7158	0.4176 ± 0.0031
x1 = 0.813	0.3893 ± 0.0029
x1 = 0.8983	0.3686 ± 0.0028

COc1ccccc1N + ClC(Cl)(Cl)Cl
viscosity [mPa·s], 100 kPa
Settings	x2 = 0.0821	x2 = 0.1726	x2 = 0.2547	x2 = 0.3403	x2 = 0.4788	x2 = 0.5789	x2 = 0.6781	x2 = 0.7641	x2 = 0.8447
298.15 K	5.011 ± 0.11	4.611 ± 0.097	4.247 ± 0.089	3.866 ± 0.081	3.249 ± 0.068	2.8 ± 0.059	2.355 ± 0.05	1.967 ± 0.041	1.603 ± 0.034
303.15 K	4.596 ± 0.097	4.234 ± 0.089	3.904 ± 0.082	3.559 ± 0.075	2.996 ± 0.063	2.587 ± 0.054	2.179 ± 0.046	1.824 ± 0.038	1.489 ± 0.031
308.15 K	4.218 ± 0.089	3.892 ± 0.082	3.593 ± 0.075	3.28 ± 0.069	2.768 ± 0.058	2.394 ± 0.05	2.02 ± 0.042	1.694 ± 0.036	1.385 ± 0.029
313.15 K	3.917 ± 0.082	3.619 ± 0.076	3.346 ± 0.07	3.057 ± 0.064	2.585 ± 0.054	2.239 ± 0.047	1.892 ± 0.04	1.587 ± 0.033	1.299 ± 0.027
318.15 K	3.643 ± 0.076	3.371 ± 0.071	3.121 ± 0.066	2.856 ± 0.06	2.42 ± 0.051	2.099 ± 0.044	1.776 ± 0.037	1.491 ± 0.031	1.221 ± 0.026

COC(C)=O + C1COCCO1
303.15 K, 101.3 kPa
Settings	viscosity [mPa·s]
x2 = 0.1026	0.3813 ± 0.0033
x2 = 0.3032	0.4727 ± 0.0037
x2 = 0.5004	0.5895 ± 0.0042
x2 = 0.7187	0.7642 ± 0.005
x2 = 0.8981	0.9562 ± 0.006

COC(C)=O + O
298.15 K, 101 kPa
Settings	viscosity [mPa·s]
x1 = 0.007776	0.9505 ± 0.0044
x1 = 0.01059	0.9711 ± 0.0044
x1 = 0.01834	1.021 ± 0.0045
x1 = 0.02351	1.05 ± 0.0045
x1 = 0.0294	1.087 ± 0.0046
x1 = 0.03745	1.118 ± 0.0046
x1 = 0.03898	1.127 ± 0.0046
x1 = 0.04509	1.146 ± 0.0046
x1 = 0.7729	0.4311 ± 0.0015
x1 = 0.8213	0.4084 ± 0.0014
x1 = 0.8787	0.3879 ± 0.0013
x1 = 0.9325	0.372 ± 0.0013

O=C([O-])[O-].[Na+].[Na+] + [2H]O[2H]
viscosity [mPa·s], 101 kPa
Settings	x1 = 0.009	x1 = 0.018	x1 = 0.031	x1 = 0.041
298.15 K	1.4 ± 0.014	1.847 ± 0.019	2.881 ± 0.029	4.233 ± 0.042
308.15 K	1.094 ± 0.011	1.443 ± 0.015	2.174 ± 0.022	3.115 ± 0.031
318.15 K	0.895 ± 0.009	1.167 ± 0.012	1.725 ± 0.017	2.435 ± 0.024

CCOC(=O)C(C)Br (stereo not given) + CCCCCC
303.15 K, 101 kPa
Settings	viscosity [mPa·s]
x1 = 0.1996	0.372 ± 0.0047
x1 = 0.4039	0.5117 ± 0.0052
x1 = 0.5022	0.5973 ± 0.0055
x1 = 0.5991	0.7048 ± 0.0059
x1 = 0.7961	1.012 ± 0.0071
